Experimental data from EP0010209A1, “N-Benzoyl-retinyl amines, process for their preparation, pharmaceutical compositions comprising them and the use of these compounds for the therapy and prophylaxis of precanceroses and carcinomas of the skin” (BASF Aktiengesellschaft, priority 1978, dated 1980).

Legend:
tracheal cartilage = details: toxicity to tracheal cartilage in vitro; from Nature 263, 110-113 (1976); read-out: celluläre Toxizitätsschwelle (Konzentration); cited from earlier work
[1] = tested on: durch Vitamin A-Hypovitaminose keratinisierten Hamstertrachealgewebe; details: hamster tracheal tissue keratinised by vitamin A deficiency; active only at this concentration; cited from earlier work
Brustkrebs bei Ratten = assay: Prevention of nitrosomethylurea-induced mammary cancer in rats; type: in vivo, Sprague-Dawley Ratten; details: nitrosomethylurea 50 mg/kg i.v., 2 mmol/kg diet from day 3, 12 weeks

Compound | MCC (tracheal cartilage) [µM] | Konzentration, in der Aktivität vorliegt [1] | Zahl der Tumoren (Brustkrebs bei Ratten; all tumours) | Zahl der Tumoren davon größer als 1,0 g (Brustkrebs bei Ratten; tumours > 1,0 g) | Zahl der Tumoren größer als 0,100 g (Brustkrebs bei Ratten; tumours > 0,100 g)
CC(=O)NCC=C(C)C=CC=C(C)C=CC1=C(C)CCCC1(C)C [N-Acetyl-retinylamin] | > 10 | 9.10^-9 molar |  |  | 
CC1=C(/C=C/C(C)=C/C=C/C(C)=C/CNC(=O)c2ccccc2)C(C)(C)CCC1 [Benzoyl-retinylamin, N-Benzoyl-all-E-Retinylamin] |  |  | 10 | 2 | 4
